From PMC7587356, “High-Throughput Screening for Inhibitors of the SARS-CoV-2 Protease Using a FRET-Biosensor” (Molecules, 2020) come the findings set out here.

Counter-ions that a name gives are not always drawn. Like-named read-outs stand apart in the source and are kept apart here.

The assay deals with SARS-CoV-2 3CLpro (Severe acute respiratory syndrome coronavirus 2, UniProt P0DTD1). Nature of the assay: biochemical. Set-up: Replicate_1 / Replicate_2 / mean / mean (LOPAC_screen_w_protease): unit not given here. It counts as biochemical. The following applies: for inhibition at 5 µM: 4 h.
Where [1] appears, read: LOPAC1280 primary screen with protease, 5 µM compound, mean of two replicates.
Setting [2] is: LOPAC1280 primary screen with protease, 5 µM compound, replicate 1.
Where [3] appears, read: LOPAC1280 primary screen with protease, 5 µM compound, replicate 2.
Where [4] appears, read: sheet LOPAC_screen_w_protease, primary screen with protease, 5 µM, mean of two replicates, read-out: mean.
The mark [5] stands for this setting: sheet LOPAC_screen_w_protease, primary screen with protease, 5 µM, replicate 1, read-out: Replicate_1.
[6] abbreviates: sheet LOPAC_screen_w_protease, primary screen with protease, 5 µM, replicate 2, read-out: Replicate_2.
Setting [7] is: LOPAC1280 primary screen with protease, 5 µM compound, replicate 1, read-out: Replicate_1 (LOPAC_screen_w_protease).
[8] abbreviates: LOPAC1280 primary screen with protease, 5 µM compound, replicate 2, read-out: Replicate_2 (LOPAC_screen_w_protease).
Setting [9] is: sheet LOPAC_screen_w_protease, LOPAC1280 primary screen at 5 µM, with protease, mean of the two replicates, read-out: mean.
[10] abbreviates: sheet LOPAC_screen_w_protease, LOPAC1280 primary screen at 5 µM, with protease, replicate 1, read-out: Replicate_1.
Setting [11] is: sheet LOPAC_screen_w_protease, LOPAC1280 primary screen at 5 µM, with protease, replicate 2, read-out: Replicate_2.
The mark [12] stands for this setting: sheet LOPAC_screen_w_protease, primary screen with protease, mean of two replicates, read-out: mean.
Setting [13] is: sheet LOPAC_screen_w_protease, primary screen with protease, replicate 1, read-out: Replicate_1.
The mark [14] stands for this setting: sheet LOPAC_screen_w_protease, primary screen with protease, replicate 2, read-out: Replicate_2.
Setting [15] is: LOPAC1280 primary screen with protease, 5 µM compound, mean of the two replicates.
[16] abbreviates: sheet LOPAC_screen_w_protease, primary screen with protease, 5 µM, mean of two replicates.
The mark [17] stands for this setting: sheet LOPAC_screen_w_protease, primary screen with protease, 5 µM, replicate 1.
[18] abbreviates: sheet LOPAC_screen_w_protease, primary screen with protease, 5 µM, replicate 2.

Take `CC(C)(C=O)Cc1cc(C(C)(C)C)c(O)c(C(C)(C)C)c1` [CGP-13501]: the “mean (LOPAC_screen_w_protease)” value under setting [1] worked out at 1.552. The “Replicate_1 (LOPAC_screen_w_protease)” value under setting [2] was -0.1889. The “Replicate_2 (LOPAC_screen_w_protease)” value under setting [3] is recorded as 3.292.

Turning to `Cc1ccc(S(=O)(=O)NC(=O)NN2CCCCCC2)cc1` [Tolazamide], the inhibition at 5 µM under setting [4] is -0.908%, the inhibition at 5 µM under setting [5] was -0.0393% and the inhibition at 5 µM under setting [6] was -1.78%.

The compound `CNCC(O)c1ccc(O)c(O)c1.Cl` (racemic) [(±)-Epinephrine hydrochloride] yielded a Replicate_1 of 3.211, a Replicate_2 of 1.4095 and a mean of 2.31.

As for `CCOC(=O)Nc1ccc(NCc2ccc(F)cc2)nc1N` [Flupirtine maleate], the inhibition at 5 µM turned out to be 10.9% (sheet LOPAC_screen_w_protease, primary screen at 5 µM, mean of two replicates, read-out: mean (LOPAC screen with protease)); 11.1% (sheet LOPAC_screen_w_protease, primary screen at 5 µM, replicate 1, read-out: Replicate_1 (LOPAC screen with protease)); 10.6% (sheet LOPAC_screen_w_protease, primary screen at 5 µM, replicate 2, read-out: Replicate_2 (LOPAC screen with protease)).

With `N[C@@H]1CON=C1O` [D-Cycloserine], the inhibition at 5 µM is, setting by setting: under setting [7], 2.63%; under setting [8], 0.045%. Moreover, the “mean (LOPAC_screen_w_protease)” value under setting [1] is recorded as 1.34.

Consider `C[N+]1(C)CCOC(O)(c2ccc(-c3ccc(C4(O)C[N+](C)(C)CCO4)cc3)cc2)C1` (stereo not drawn) [Hemicholinium-3], for which the inhibition at 5 µM runs as follows: (sheet LOPAC_screen_w_protease, primary screen with protease, compound at 5 µM, mean of two replicates, read-out: mean) 2.72%; (sheet LOPAC_screen_w_protease, primary screen with protease, compound at 5 µM, replicate 1, read-out: Replicate_1) 4.37%; (sheet LOPAC_screen_w_protease, primary screen with protease, compound at 5 µM, replicate 2, read-out: Replicate_2) 1.08%.

Turning to `C[C@@H]1O[C@@H]1P(=O)(O)O` [Phosphomycin disodium], the inhibition at 5 µM under setting [4] was -0.258%, the inhibition at 5 µM under setting [5] was -0.0304% and the inhibition at 5 µM under setting [6] was -0.485%.

With `CN/C(=N\c1ccc(C2=NNC(=O)CC2C)cc1)NC#N` (stereo not drawn) [SKF 94836], the inhibition at 5 µM under setting [9] worked out at 0.836%, the inhibition at 5 µM under setting [10] was 1.39% and the inhibition at 5 µM under setting [11] was found to be 0.284%.

For `CCCCCCC(C)(C)c1ccc([C@@H]2C[C@H](O)CC[C@H]2CCCO)c(O)c1` [CP55940], the inhibition at 5 µM is, setting by setting: under setting [12], 2.22%; under setting [13], 1.74%; under setting [14], 2.71%.

Turning to `c1ccc(-c2ccccn2)nc1` [2,2'-Bipyridyl], the mean (sheet LOPAC_screen_w_protease, LOPAC1280 primary screen at 5 µM, with protease, mean of the two replicates) worked out at 0.8479. Besides, the Replicate_1 (sheet LOPAC_screen_w_protease, LOPAC1280 primary screen at 5 µM, with protease, replicate 1) is 3.924. The compound further registered a Replicate_2 (sheet LOPAC_screen_w_protease, LOPAC1280 primary screen at 5 µM, with protease, replicate 2) of -2.2286.

Consider `NCCS(=O)(=O)O` [Taurine], for which the inhibition at 5 µM was 2.66% under setting [7] and 1.18% under setting [8]. Besides, the “mean (LOPAC_screen_w_protease)” value under setting [15] is 1.917.

`O=C[C@H](Cl)[C@@H](O)[C@H](O)[C@H](O)CO` [2-Chloro-2-deoxy-D-glucose]: under setting [15], the “mean (LOPAC_screen_w_protease)” value was found to be 1.752. Under setting [2], the “Replicate_1 (LOPAC_screen_w_protease)” value was found to be 1.144. For the same compound, the “Replicate_2 (LOPAC_screen_w_protease)” value under setting [3] was found to be 2.361.

On to `NC(=O)CC[C@H](N)C(=O)O` [L-Glutamine], for which the inhibition at 5 µM runs as follows: under setting [9], 0.871%; under setting [10], 2.13%; under setting [11], -0.384%.

`O=C(O)Cc1c[nH]c2ccc(O)cc12` [5-Hydroxyindolacetic acid] displayed a mean under setting [16] of -0.3702. Moreover, the Replicate_1 under setting [17] worked out at 1.641. Besides, the Replicate_2 under setting [18] is listed as -2.381.

Regarding `Oc1ccc(-c2nc(-c3ccncc3)c(-c3ccc(F)cc3)[nH]2)cc1` [SB 202190], the inhibition at 5 µM under setting [12] came to 2.45%, the inhibition at 5 µM under setting [13] came to 1.31% and the inhibition at 5 µM under setting [14] amounted to 3.6%.

Turning to `CC(=O)Oc1ccccc1C(=O)O` [Acetylsalicylic acid], the inhibition at 5 µM under setting [7] was determined as 1.9% and the inhibition at 5 µM under setting [8] was determined as 1.38%. Moreover, under setting [1], the “mean (LOPAC_screen_w_protease)” value is 1.637.

`O.c1cnc2c(c1)ccc1cccnc12` [1,10-Phenanthroline monohydrate] gave a mean under setting [16] of 0.3766. The Replicate_1 under setting [17] is -0.05956. The Replicate_2 under setting [18] turned out to be 0.8127.
